Measurements taken from publication PMC8834506, “Optimization of Thymidine Kinase-Based Safety Switch for Neural Cell Therapy” (Cells, 2022).
“Also recorded” adds a separate entry of the source. Read-outs that look alike come from different tables or passages of the source.

Tests used:
[1] = test system: hESC (HS420) expressing Ki67-SR39h; test: ATP-based cell survival assay, nucleoside-induced cell death; details: for EC50: SR39h under Ki67 promoter
[2] = test system: non-transduced hESC colonies; test: Morphology and size of hESC colonies upon nucleoside treatment; assay type: cell-based, human
From the text: We next investigated the impact of ACV, PCV, and GCV on non-transduced hESC and neuroprogenitors (proliferating ReNcells). […] To further understand the impact of nucleoside analogs on non-transduced cells, we performed γ-H2A.X immunostaining (Figure 6B). There was a graded response, virtually identical in hESC and in neuroprogenitors. […] In addition, we investigated the morphology and size of non-transduced hESC colonies upon nucleoside treatment. […] Taken together, our findings confirm considerable toxicity of GCV, even in the absence of viral TK. Note that this was not the case for PCV despite the fact that it is a potent inducer of cell death in thymidine kinase-expressing cells.
(§1) Cells were exposed to 100 µM of the respective nucleoside for 48 h. DNA damage was monitored using γ-H2A.X marker in yellow and nuclei were counterstained with Hoechst. The white box in the first column indicates the area of the zoom for the hESC colonies.

[3] = test system: host cell DNA; details: cited from earlier work
[4] = assay type: in vivo, NOD/SCID mice; details: 40 mg/kg/day i.p.; weighed daily during treatment
Method: (§2) Given the encouraging in vitro results, we next investigated whether this newly developed safety switch system (SR39h and different nucleoside analogs) could prevent tumor formation in vivo. For this purpose, 20,000 undifferentiated Ki67-SR39h-expressing hESC were transplanted into the striatum of NOD/SCID mice. […] A group of control mice received only a NaCl solution. […] Human cytoplasmic marker (HCM) staining confirmed the human (i.e., hESC-derived) origin of these tumors. Tumors cells were predominantly Ki67 positive with a rosette organization as frequently found in tumors of the central nervous system.
Supplementary Figure S3: Mice weight
Mice were weighed daily during guanosine analogs treatment to identify differences in weight gain/loss between treated groups. No differences were observed between treatment groups.
Supplementary Figure S4: in vivo validation of suicide gene. Coronal section of NOD/SCID mice 47 days after injection of hESC expressing the SR39h thymidine kinase variant. Mice were treated for 2x5 days with the respective nucleoside analogs (see Methods). Upper lane: ACV; middle lane: PCV; lower lane: GCV. Sections were colored with cresyl violet and dark purple staining reflects a high density of nuclei. Scale bar 1000 µm. […]

[5] = test system: Ki67-SR39h-expressing hESC transplanted into the striatum; test: In vivo prevention of tumor formation after striatal transplantation; parameters: species or system NOD/SCID mice; details: 40 mg/kg/day i.p., 47 days post-transplantation
Method: as §2
Figure 7 in vivo validation of suicide gene and inducers. (A) Schematic diagram of the experimental setup to detect tumor elimination in vivo. NOD/SCID mice were transplanted with 20,000 SR39h-expressing hESC through stereotactic injection into the striatum. 48 h post transplantation, mice were intraperitoneally injected with the respective nucleoside (40 mg/kg) for five consecutive days a week during a two-week period. Control mice were treated with a NaCl solution. Mice were sacrificed 47 days post transplantation. (B) Cresyl violet staining of a brain section. […] (C) Immunostaining of brain coronal section (sections from ACV-, PCV-, and GCV-treated mice are shown in the upper, middle, and lower row, respectively). Staining with the proliferation marker Ki67 and with the human cytoplasmic marker (HCM) are shown in red and green, respectively. Nuclei were counterstained with DAPI (blue). White arrows show residual proliferative cells form the graft. A merge of the three staining is shown in the right column. Each experimental group consisted of five mice.
Single cell transplant: Undifferentiated HS420 (expressing TK variants) were detached by TrypLE and concentrated at 20,000 cells/μL in Stemflex. 20,000 cells (1 μL) were injected into the right striatum using a 26-G Hamilton syringe (Hamilton, BGB Analytik AG, Boeckten, Switzerland). Injection coordinates for striatum were: bregma = 0.6 mm, mediolateral = 2 mm, dorsoventral = 3 mm.
Thirty days after termination of treatment with the respective antiviral nucleoside analogs or control (NaCl), mice were sacrificed by intracardiac perfusion of paraformaldehyde 4% in PBS. Brains were removed from the skull and post-fixed in the same fixative overnight.
Paraffin embedded brains were sectioned (coronal sections 7 µm thick) and processed for hematoxylin and eosin or cresyl violet staining stain aiming morphological assessment of the graft. Sections were mounted in Eukitt (Kindler GmbH, Germany) and observed under microscope (see below)
The primary antibody diluted in PBS with 0.3% Triton was incubated at 4 °C overnight in agitation. […]

[6] = test system: non-transduced hESC; assay type: cell-based; details: 96 h nucleoside exposure; up to 100 µM
Method: as §1
Plates were washed twice with DMEM-F12 (Gibco, ThermoFisher; Geneva, Switzerland), then coated with Matrigel (Corning, Lonay, Switzerland) 1/100 in DMEM-F12 and incubate 2 h at 37°. Cells were detached using Accutase and seeded at 2000 cells/well in serum-free culture medium containing 10 µM of ROCK inhibitor. At 24 h, the cell culture was continued without ROCK inhibitor. […] Drugs were prepared by serial dilution (two-fold) in 100% DMSO. At 48 h after seeding, cells were exposed to antiviral drugs for 96 h. For EC50 assays, the medium was changed daily for 4 days, then cell viability was assessed using an ATP-based assay. EC50 values for each construct were calculated using a four parameters equation (GraphPad, Prism8, San Diego, CA, USA). The same procedure was used for the cell death kinetic determinations except the treatment duration. Luminescence was measured using Spectra L384/L96 (0.2 sec exposure, Molecular devices, Biberach an der Riß, Germany).

[7] = test system: sister chromatid exchange; parameters: method as in PMID 10719044; details: at concentrations far below those impairing the proliferative activity; cited from earlier work
[8] = Homo sapiens, 96 h, read-out: EC50 (cell survival), 96 h nucleoside exposure

Row | Compound | Cell death induction in SR39h-expressing cells (in words) ([1]; 96 h nucleoside exposure) | EC50 [1, 8] [nM] | Effect on morphology and size of colonies [2] | Fragmentation of host cell DNA [3] | Differences in weight among groups [4] | EC50 ([1]; read-out: EC50 (cell survival), 96 h nucleoside exposure) [nM] | Tumor formation ([5]; five consecutive days a week for two weeks, from 2 days after transplantation, five mice per group) | Mice with a small nuclei-rich region at the graft site ([5]; cresyl violet staining) | Toxicity in non-transduced hESC [6] | Induction of sister chromatid exchange [7]
1 | Nc1nc2c(ncn2COCCO)c(=O)[nH]1 [ACV, acyclovir] | induced only very little cytotoxicity | 2900 | did not observe an effect | no fragmentation of host cell DNA | no significant differences in weight |  |  |  |  | 
2 | CC(=O)OCC(CCn1cnc2cnc(N)nc21)COC(C)=O [FAM, famciclovir] | did not show any toxic effects; also recorded: did not show any activity | > 100000 |  |  |  |  |  |  |  | 
3 | CC(C)[C@H](N)C(=O)OCC(CO)OCn1cnc2c(=O)nc(N)[nH]c21 (stereo partly drawn) [Val-GCV, valganciclovir] | relatively weak, but clearly discernible activity | 31 |  |  |  | 32 |  |  |  | 
4 | O=c1[nH]c(=O)n([C@H]2C[C@H](O)[C@@H](CO)O2)cc1/C=C/Br [BRVD, brivudine] | induced only very little cytotoxicity | ~60000 |  |  |  |  |  |  |  | 
5 | Nc1nc2c(ncn2CCC(CO)CO)c(=O)[nH]1 [PCV, penciclovir] | strong suicide inducers | 2.4 | did not observe an effect | induce fragmentation of host cell DNA | no significant differences in weight |  | prevented tumor formation; also recorded: no major tumors; also recorded: impressive anti-tumor activities | small nucleus-rich region in one of the PCV-treated mice; also recorded: one out of five | did not observe toxicity | not
